pKd: −log10 of the molar value.
Target: proBFT-3 (Bacteroides fragilis, UniProt O86049)
Assay: isothermal titration calorimetry
Assay type: binding

Chain of proBFT-3 (O86049 18-397 limits assumed): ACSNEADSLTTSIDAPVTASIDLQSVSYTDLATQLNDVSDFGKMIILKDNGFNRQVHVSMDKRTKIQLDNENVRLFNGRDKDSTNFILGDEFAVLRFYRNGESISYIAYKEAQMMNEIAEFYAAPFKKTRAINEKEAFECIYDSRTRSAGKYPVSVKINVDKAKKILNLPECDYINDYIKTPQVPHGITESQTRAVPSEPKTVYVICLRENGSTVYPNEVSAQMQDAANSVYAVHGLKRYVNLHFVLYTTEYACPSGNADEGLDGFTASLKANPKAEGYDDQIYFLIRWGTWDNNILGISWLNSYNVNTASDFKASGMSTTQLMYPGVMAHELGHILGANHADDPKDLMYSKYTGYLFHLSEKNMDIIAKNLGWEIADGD

Row | Compound | pKd
1 | COc1ccc([C@@H]2CC(=O)c3c(O)cc(O)cc3O2)cc1O [C-10, hesperetin] | 4.66
2 | C[C@@H]1CCc2cc(F)cc3c(=O)c(C(=O)O)cn1c23 [C-4, flumequine] | 4.70
